Values of other authors, collected in paper PMC8621674, “Formulation and In Vivo Evaluation of a Solid Self-Emulsifying Drug Delivery System Using Oily Liquid Tocotrienols as Model Active Substance” (Pharmaceutics, 2021).

Details: no reference given

| Substance | HLB value |
| --- | --- |
| caprylocaproyl macrogol-8 glycerides [Labrasol®] | 12 |
| poloxamer 188 | 29 |
